What was measured:
Type in all cases: cell-based
A431 cells = experiment: Cellular proliferation (Alamar Blue) assay, A431 cells; conditions: Homo sapiens, A-431, 72 hr incubation
Protocol: (§1) Example 2: Cellular Proliferation (Alamar Blue) Assays
(§2) • 1. EGFR(D770_N771insSVD) expressing Ba/F3 stable cell line • 2. EGFR (A767_dupASV) expressing Ba/F3 stable cell line • 3. A431 cells • 4. EGFR (H773insNPH) expressing Ba/F3 stable cell line • 5. HER2 (A775_G775insYVMA) expressing Ba/F3 stable cell line
(§3) • 1. Seed cells at 5000 for A431 and 15,000 cells for Ba/F3 in 100 μL/well in complete media (for A431: DMEM with 10% FBS and for Ba/F3 cells: RPMI with 10% FBS) in • 96-well tissue culture plate. Leave outer wells without cells for background measurements. Incubate at 37 degree Celsius in 5% C02 humidified incubator for 16-18 hours. • 2. Add 0.025 ml of 5× concentration compound dilution or DMSO control. Final compound concentration range is 10-0.0005 μM prepared in 3-fold serial dilutions. Incubate for 72 hr at 37 degree Celsius in 5% CO2 humidified incubator. • 3. Add 0.0125 ml Alamar Blue™ reagent to each well with multi-channel pipette and tap gently on each side of the plate to mix. Incubate for 3 hours at 37 degree Celsius in 5% CO2 humidified incubator. • 4. Read plates on fluorescence reader (Tecan Spark Control, Device: Spark, Serial #: 1801006040) at 540 nm excitation, 590 nm emission wavelength. • 5. Data analysis was performed using XLfit 5.5.0.5.

[1] = target: EGFR (A767_dupASV) expressing Ba/F3 stable cell line (Homo sapiens, UniProt P00533, DUP767-769, cells depend on it); experiment: Cellular proliferation (Alamar Blue) assay, EGFR (A767_dupASV) Ba/F3; conditions: 72 hr incubation, read-out: A767 IC50
Protocol: as §1, §2, §3

[2] = target: EGFR(D770_N771insSVD) expressing Ba/F3 stable cell line (Homo sapiens, UniProt P00533, DUP768-770, cells depend on it); experiment: Cellular proliferation (Alamar Blue) assay, EGFR(D770_N771insSVD) Ba/F3; conditions: 72 hr incubation, read-out: D770 IC50
Protocol: as §1, §2, §3

[3] = target: EGFR (H773insNPH) expressing Ba/F3 stable cell line (Homo sapiens, UniProt P00533, DUP771-773, cells depend on it); experiment: Cellular proliferation (Alamar Blue) assay, EGFR (H773insNPH) Ba/F3; conditions: 72 hr incubation, read-out: NPH IC50
Protocol: as §1, §2, §3

[4] = target: HER2 (A775_G775insYVMA) expressing Ba/F3 stable cell line (Homo sapiens, UniProt P04626, DUP772-775, cells depend on it); experiment: Cellular proliferation (Alamar Blue) assay, HER2 (A775_G775insYVMA) Ba/F3; conditions: 72 hr incubation, read-out: YVMA IC50
Protocol: as §1, §2, §3

Chain of HER2 (A775_G775insYVMA) expressing Ba/F3 stable cell line (P04626 with tags, fused parts or gaps DUP772-775): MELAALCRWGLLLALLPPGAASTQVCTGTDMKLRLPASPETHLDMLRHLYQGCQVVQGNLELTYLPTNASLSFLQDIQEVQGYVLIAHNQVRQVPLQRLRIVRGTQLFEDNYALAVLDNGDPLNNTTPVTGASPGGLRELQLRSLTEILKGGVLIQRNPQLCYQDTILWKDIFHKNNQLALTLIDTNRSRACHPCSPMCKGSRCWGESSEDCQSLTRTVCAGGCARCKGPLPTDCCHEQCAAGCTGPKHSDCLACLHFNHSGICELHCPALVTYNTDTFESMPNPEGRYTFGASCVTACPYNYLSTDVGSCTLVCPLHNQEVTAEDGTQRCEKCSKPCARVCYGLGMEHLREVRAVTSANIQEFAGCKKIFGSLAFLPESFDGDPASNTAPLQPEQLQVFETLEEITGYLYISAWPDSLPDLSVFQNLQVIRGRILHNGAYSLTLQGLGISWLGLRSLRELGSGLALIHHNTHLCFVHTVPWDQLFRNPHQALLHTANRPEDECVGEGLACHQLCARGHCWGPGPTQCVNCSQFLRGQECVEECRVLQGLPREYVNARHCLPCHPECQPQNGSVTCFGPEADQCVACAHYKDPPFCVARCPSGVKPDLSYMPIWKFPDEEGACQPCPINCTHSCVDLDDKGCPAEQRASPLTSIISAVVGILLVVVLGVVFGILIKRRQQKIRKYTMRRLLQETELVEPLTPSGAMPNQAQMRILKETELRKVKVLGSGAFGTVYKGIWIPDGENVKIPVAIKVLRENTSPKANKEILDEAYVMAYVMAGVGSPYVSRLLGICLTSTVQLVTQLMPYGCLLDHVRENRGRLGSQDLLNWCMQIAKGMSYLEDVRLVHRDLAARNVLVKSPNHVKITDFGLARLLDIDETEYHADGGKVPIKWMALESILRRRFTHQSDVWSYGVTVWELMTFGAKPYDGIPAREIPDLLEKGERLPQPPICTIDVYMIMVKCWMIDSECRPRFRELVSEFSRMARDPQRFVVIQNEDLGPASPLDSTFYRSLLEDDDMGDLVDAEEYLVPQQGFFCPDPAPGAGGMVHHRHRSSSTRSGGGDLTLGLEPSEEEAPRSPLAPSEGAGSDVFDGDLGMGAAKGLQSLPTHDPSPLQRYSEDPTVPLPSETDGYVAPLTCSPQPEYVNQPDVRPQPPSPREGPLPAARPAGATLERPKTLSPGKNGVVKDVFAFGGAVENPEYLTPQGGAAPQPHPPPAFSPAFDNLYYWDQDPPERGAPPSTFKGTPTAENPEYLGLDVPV
Chain of EGFR (H773insNPH) expressing Ba/F3 stable cell line (P00533 with tags, fused parts or gaps DUP771-773): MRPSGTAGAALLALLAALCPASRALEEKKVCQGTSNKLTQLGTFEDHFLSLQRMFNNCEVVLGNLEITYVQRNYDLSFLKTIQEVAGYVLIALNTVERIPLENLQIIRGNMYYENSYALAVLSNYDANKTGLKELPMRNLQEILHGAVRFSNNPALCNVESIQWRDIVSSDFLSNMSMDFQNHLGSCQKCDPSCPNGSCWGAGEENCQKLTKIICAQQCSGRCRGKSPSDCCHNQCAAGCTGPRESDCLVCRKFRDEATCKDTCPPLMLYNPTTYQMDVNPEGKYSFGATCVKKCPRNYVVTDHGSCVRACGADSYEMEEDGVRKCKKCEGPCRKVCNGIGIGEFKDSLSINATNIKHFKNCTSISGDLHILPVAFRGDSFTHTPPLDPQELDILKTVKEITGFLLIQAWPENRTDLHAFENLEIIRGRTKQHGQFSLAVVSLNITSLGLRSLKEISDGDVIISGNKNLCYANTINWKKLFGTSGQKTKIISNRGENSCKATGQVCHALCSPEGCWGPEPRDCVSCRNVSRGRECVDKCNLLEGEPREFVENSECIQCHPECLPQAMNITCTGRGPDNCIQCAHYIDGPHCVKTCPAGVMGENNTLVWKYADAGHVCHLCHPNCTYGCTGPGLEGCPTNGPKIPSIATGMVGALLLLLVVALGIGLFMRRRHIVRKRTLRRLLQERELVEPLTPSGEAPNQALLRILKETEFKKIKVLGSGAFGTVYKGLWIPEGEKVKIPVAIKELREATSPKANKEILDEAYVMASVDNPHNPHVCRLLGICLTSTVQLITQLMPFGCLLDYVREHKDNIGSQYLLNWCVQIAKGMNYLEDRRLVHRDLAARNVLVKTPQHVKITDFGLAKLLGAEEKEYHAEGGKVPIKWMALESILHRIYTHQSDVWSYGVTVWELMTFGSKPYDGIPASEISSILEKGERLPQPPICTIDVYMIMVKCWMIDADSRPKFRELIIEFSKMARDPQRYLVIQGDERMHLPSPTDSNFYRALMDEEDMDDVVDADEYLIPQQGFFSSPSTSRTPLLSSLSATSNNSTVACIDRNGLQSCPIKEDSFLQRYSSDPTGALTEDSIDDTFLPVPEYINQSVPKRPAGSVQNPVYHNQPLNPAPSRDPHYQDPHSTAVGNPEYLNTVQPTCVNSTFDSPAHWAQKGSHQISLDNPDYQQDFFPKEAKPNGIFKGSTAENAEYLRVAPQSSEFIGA
Chain of EGFR(D770_N771insSVD) expressing Ba/F3 stable cell line (P00533 with tags, fused parts or gaps DUP768-770): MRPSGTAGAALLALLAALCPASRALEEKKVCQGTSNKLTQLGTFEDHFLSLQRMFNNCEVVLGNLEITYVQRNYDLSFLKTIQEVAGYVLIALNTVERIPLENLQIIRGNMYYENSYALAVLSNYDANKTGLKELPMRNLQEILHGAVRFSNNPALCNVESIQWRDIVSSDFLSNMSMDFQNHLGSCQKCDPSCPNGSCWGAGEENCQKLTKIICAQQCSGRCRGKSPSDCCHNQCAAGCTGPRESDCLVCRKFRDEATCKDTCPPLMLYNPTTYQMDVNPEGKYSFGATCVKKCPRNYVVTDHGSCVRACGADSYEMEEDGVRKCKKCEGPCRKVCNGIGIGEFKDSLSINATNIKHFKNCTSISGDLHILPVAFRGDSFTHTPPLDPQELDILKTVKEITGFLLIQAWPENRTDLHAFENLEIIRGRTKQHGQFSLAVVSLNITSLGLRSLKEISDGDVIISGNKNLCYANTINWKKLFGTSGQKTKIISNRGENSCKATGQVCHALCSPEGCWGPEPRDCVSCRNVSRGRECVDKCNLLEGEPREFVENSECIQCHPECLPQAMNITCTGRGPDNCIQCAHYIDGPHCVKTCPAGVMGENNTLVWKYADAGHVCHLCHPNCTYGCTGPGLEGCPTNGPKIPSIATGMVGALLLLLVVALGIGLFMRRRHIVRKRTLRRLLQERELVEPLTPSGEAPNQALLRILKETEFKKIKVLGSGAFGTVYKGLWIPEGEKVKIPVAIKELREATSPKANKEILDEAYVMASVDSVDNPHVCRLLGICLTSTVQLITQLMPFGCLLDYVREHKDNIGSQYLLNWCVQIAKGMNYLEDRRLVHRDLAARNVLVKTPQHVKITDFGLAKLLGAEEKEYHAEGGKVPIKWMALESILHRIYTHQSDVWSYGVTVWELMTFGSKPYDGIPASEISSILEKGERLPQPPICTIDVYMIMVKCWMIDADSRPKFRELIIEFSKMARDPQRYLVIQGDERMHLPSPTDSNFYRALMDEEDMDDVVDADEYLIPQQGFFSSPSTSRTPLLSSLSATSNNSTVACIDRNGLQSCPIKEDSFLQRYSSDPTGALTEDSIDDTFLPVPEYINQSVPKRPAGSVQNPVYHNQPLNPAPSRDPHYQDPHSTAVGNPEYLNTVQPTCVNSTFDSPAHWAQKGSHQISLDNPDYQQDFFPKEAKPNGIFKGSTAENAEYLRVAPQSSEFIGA
Chain of EGFR (A767_dupASV) expressing Ba/F3 stable cell line (P00533 with tags, fused parts or gaps DUP767-769): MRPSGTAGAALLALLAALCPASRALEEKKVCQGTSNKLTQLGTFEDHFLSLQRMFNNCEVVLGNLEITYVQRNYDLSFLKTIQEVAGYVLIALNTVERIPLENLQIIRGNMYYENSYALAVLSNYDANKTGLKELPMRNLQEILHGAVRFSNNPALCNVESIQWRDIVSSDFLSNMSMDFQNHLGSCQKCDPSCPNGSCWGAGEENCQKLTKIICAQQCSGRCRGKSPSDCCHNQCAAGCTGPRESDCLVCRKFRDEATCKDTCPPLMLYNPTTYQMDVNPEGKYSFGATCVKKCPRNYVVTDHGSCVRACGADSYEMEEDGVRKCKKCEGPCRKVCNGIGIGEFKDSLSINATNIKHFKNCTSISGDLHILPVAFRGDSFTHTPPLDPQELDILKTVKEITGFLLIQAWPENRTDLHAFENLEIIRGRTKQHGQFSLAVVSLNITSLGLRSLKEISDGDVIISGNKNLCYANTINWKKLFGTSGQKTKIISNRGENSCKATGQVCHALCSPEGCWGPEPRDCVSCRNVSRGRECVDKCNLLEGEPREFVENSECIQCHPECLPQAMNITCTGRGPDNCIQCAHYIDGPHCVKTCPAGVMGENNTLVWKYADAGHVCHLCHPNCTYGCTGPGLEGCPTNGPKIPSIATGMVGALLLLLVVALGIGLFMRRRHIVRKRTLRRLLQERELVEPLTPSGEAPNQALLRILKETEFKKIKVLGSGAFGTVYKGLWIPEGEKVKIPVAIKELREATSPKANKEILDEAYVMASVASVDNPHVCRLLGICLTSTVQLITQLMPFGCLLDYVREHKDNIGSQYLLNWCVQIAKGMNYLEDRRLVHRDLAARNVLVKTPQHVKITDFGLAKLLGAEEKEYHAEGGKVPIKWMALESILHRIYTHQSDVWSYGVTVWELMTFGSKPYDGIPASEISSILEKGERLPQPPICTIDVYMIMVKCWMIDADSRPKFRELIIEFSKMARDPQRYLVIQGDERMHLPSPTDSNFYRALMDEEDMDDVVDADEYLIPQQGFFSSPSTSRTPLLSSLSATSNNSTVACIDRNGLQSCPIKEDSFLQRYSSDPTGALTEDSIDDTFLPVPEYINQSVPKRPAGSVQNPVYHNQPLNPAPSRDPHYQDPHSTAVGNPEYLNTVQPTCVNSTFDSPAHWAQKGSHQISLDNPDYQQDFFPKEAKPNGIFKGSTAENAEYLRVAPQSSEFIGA

| Compound | IC50 (A431 cells) | GI50 [1] | GI50 [2] | GI50 [3] | GI50 [4] |
| --- | --- | --- | --- | --- | --- |
| C=CC(=O)Nc1cccc(N2C(=O)N(Cc3ccccc3)CCc3cnc(Nc4ccc(F)cc4OC)nc32)c1 [Compound 21, N-(3-(7-benzyl-2-((4-fluoro-2-methoxyphenyl)amino)-8-oxo-5,6,7,8-tetrahydro-9H-pyrimido[4,5-d][1,3]diazepin-9-yl)phenyl)acrylamide] | 40 nM | 97 nM | 103 nM | 102 nM | 44 nM |
| COc1cc(N2CCN(C)CC2)ccc1Nc1ncc2c(n1)N(c1cccc(NC(=O)/C=C/CN(C)C)c1)C(=O)N(Cc1ccccc1)CC2 [Compound 15, (E)-N-(3-(7-benzyl-2-((2-methoxy-4-(4-methylpiperazin-1-yl)phenyl)amino)-8-oxo-5,6,7,8-tetrahydro-9H-pyrimido[4,5-d][1,3]diazepin-9-yl)phenyl)-4-(dimethylamino)but-2-enamide] | 6020 nM | 348 nM | 959 nM | – | 174 nM |
| C=CC(=O)Nc1cccc(N2C(=O)N(C3CC3)CCc3cnc(Nc4cn(C)nc4Cl)nc32)c1 [Compound 20, N-(3-(2-((3-chloro-1-methyl-1H-pyrazol-4-yl)amino)-7-cyclopropyl-8-oxo-5,6,7,8-tetrahydro-9H-pyrimido[4,5-d][1,3]diazepin-9-yl)phenyl)acrylamide] | > 10000 nM | 225 nM | 320 nM | – | 895 nM |
| Cn1cc(Nc2ncc3c(n2)N(c2cccc(NC(=O)C(F)Cl)c2)C(=O)N(Cc2ccccc2)CC3)c(Cl)n1 (centres unmarked) [Compound 24, N-(3-(7-benzyl-2-((3-chloro-1-methyl-1H-pyrazol-4-yl)amino)-8-oxo-5,6,7,8-tetrahydro-9H-pyrimido[4,5-d][1,3]diazepin-9-yl)phenyl)-2-chloro-2-fluoroacetamide] | > 10000 nM | 1150 nM | 1090 nM | – | 2000 nM |
| C=CC(=O)Nc1cccc(N2C(=O)N(Cc3ccccc3)CCc3cnc(NC4CCCC4)nc32)c1 [Compound 13, N-(3-(7-benzyl-2-(cyclopentylamino)-8-oxo-5,6,7,8-tetrahydro-9H-pyrimido[4,5-d][1,3]diazepin-9-yl)phenyl)acrylamide] | > 10000 nM | 848 nM | 1060 nM | – | 1030 nM |
| CN(C)C/C=C/C(=O)Nc1cccc(N2C(=O)N(Cc3ccccc3)CCc3cnc(Nc4ccc(N5CCN(C)CC5)nc4)nc32)c1 [Compound 17, (E)-N-(3-(7-benzyl-2-((6-(4-methylpiperazin-1-yl)pyridin-3-yl)amino)-8-oxo-5,6,7,8-tetrahydro-9H-pyrimido[4,5-d][1,3]diazepin-9-yl)phenyl)-4-(dimethylamino)but-2-enamide] | > 10000 nM | 1130 nM | 2770 nM | – | 793 nM |
| CN(C)C/C=C/C(=O)Nc1cccc(N2C(=O)N(c3ccccc3)CCc3cnc(Nc4cccnc4F)nc32)c1 [Compound 44, (E)-4-(dimethylamino)-N-(3-(2-((2-fluoropyridin-3-yl)amino)-8-oxo-7-phenyl-5,6,7,8-tetrahydro-9H-pyrimido[4,5-d][1,3]diazepin-9-yl)phenyl)but-2-enamide] | > 10000 nM | 936 nM | 1140 nM | – | 1230 nM |

Continued, values first:

| IC50 (A431 cells) | GI50 [1] | GI50 [2] | GI50 [3] | GI50 [4] | Compound |
| --- | --- | --- | --- | --- | --- |
| > 10000 nM | 42 nM | 48 nM | 108 nM | 31 nM | Cn1cc(Nc2ncc3c(n2)N(c2cccc(NC(=O)/C=C/CN4CCCCC4)c2)C(=O)N(Cc2ccccc2)CC3)c(Cl)n1 [Compound 3, (E)-N-(3-(7-benzyl-2-((3-chloro-1-methyl-1H-pyrazol-4-yl)amino)-8-oxo-5,6,7,8-tetrahydro-9H-pyrimido[4,5-d][1,3]diazepin-9-yl)phenyl)-4-(piperidin-1-yl)but-2-enamide] |
| 16 nM | 36 nM | 45 nM | 25 nM | 67 nM | C=CC(=O)Nc1cccc(N2C(=O)N(c3ccccc3)CCc3cnc(Nc4cn(C)nc4Cl)nc32)c1 [Compound 29, N-(3-{2-[(3-chloro-1-methyl-1H-pyrazol-4-yl)amino]-8-oxo-7-phenyl-5H,6H,7H,8H,9H-pyrimido[4,5-d][1,3]diazepin-9-yl}phenyl)prop-2-enamide] |
| > 10000 nM | 117 nM | 122 nM | 138 nM | 1060 nM | C=CC(=O)Nc1cccc(N2C(=O)N(c3ccccc3)CCc3cnc(Nc4cn(C)nc4F)nc32)c1 [Compound 35, N-(3-(2-((3-fluoro-1-methyl-1H-pyrazol-4-yl)amino)-8-oxo-7-phenyl-5,6,7,8-tetrahydro-9H-pyrimido[4,5-d][1,3]diazepin-9-yl)phenyl)acrylamide] |
| > 10000 nM | 993 nM | 1960 nM | – | 3320 nM | C/C=C/C(=O)Nc1cccc(N2C(=O)N(c3ccccc3)CCc3cnc(Nc4cn(C)nc4Cl)nc32)c1 [Compound 30, (E)-N-(3-(2-((3-chloro-1-methyl-1H-pyrazol-4-yl)amino)-8-oxo-7-phenyl-5,6,7,8-tetrahydro-9H-pyrimido[4,5-d][1,3]diazepin-9-yl)phenyl)but-2-enamide] |
| > 10000 nM | 2040 nM | 3950 nM | – | 2420 nM | CN(C)C/C=C/C(=O)Nc1cccc(N2C(=O)N(c3ccccc3)CCc3cnc(Nc4cn(C)nc4Cl)nc32)c1 [Compound 31, (E)-N-(3-(2-((3-chloro-1-methyl-1H-pyrazol-4-yl)amino)-8-oxo-7-phenyl-5,6,7,8-tetrahydro-9H-pyrimido[4,5-d][1,3]diazepin-9-yl)phenyl)-4-(dimethylamino)but-2-enamide] |
| > 10000 nM | 1160 nM | 1360 nM | – | 3280 nM | Cn1cc(Nc2ncc3c(n2)N(c2cccc(NC(=O)/C=C/CN4CCOCC4)c2)C(=O)N(c2ccccc2)CC3)c(Cl)n1 [Compound 32, (E)-N-(3-(2-((3-chloro-1-methyl-1H-pyrazol-4-yl)amino)-8-oxo-7-phenyl-5,6,7,8-tetrahydro-9H-pyrimido[4,5-d][1,3]diazepin-9-yl)phenyl)-4-morpholinobut-2-enamide] |
| > 10000 nM | 261 nM | 249 nM | – | 243 nM | C/C=C/C(=O)Nc1cccc(N2C(=O)N(Cc3ccccc3)CCc3cnc(Nc4cn(C)nc4Cl)nc32)c1 [Compound 2, (E)-N-(3-(7-benzyl-2-((3-chloro-1-methyl-1H-pyrazol-4-yl)amino)-8-oxo-5,6,7,8-tetrahydro-9H-pyrimido[4,5-d][1,3]diazepin-9-yl)phenyl)but-2-enamide] |
| > 10000 nM | 325 nM | 406 nM | – | 536 nM | Cn1cc(Nc2ncc3c(n2)N(c2cccc(NC(=O)/C=C/CN4CCCCC4)c2)C(=O)N(c2ccccc2)CC3)c(Cl)n1 [Compound 40, (E)-N-(3-(2-((3-chloro-1-methyl-1H-pyrazol-4-yl)amino)-8-oxo-7-phenyl-5,6,7,8-tetrahydro-9H-pyrimido[4,5-d][1,3]diazepin-9-yl)phenyl)-4-(piperidin-1-yl)but-2-enamide] |
| > 10000 nM | 1130 nM | 2770 nM | – | 5950 nM | COC/C=C/C(=O)Nc1cccc(N2C(=O)N(c3ccccc3)CCc3cnc(Nc4cn(C)nc4Cl)nc32)c1 [Compound 46, (E)-N-(3-(2-((3-chloro-1-methyl-1H-pyrazol-4-yl)amino)-8-oxo-7-phenyl-5,6,7,8-tetrahydro-9H-pyrimido[4,5-d][1,3]diazepin-9-yl)phenyl)-4-methoxybut-2-enamide] |

Reference: patent publication US20240217977A1, “DIAZEPANONE-FUSED PYRIMIDINE COMPOUNDS, COMPOSITIONS AND MEDICINAL APPLICATIONS THEREOF” (Blueprint Medicines Corporation, priority 2021, published 2024)
